“Also recorded” adds a separate entry of the source.

For assay [1] the following is noted: cited from earlier work.
Another assay concerns human leukemia cells. Conditions: biological testing of 19-nor-analogs; cited from earlier work.
The test system of a further assay is osteoblast cell line. Conditions: Yamamoto et al., J. Biol. Chem. 278, 31756 (2003); cited from earlier work.
For assay [2] the following is noted: studies described in Shevde et al.; cited from earlier work.
The next assay concerns ovariectomized rats. The experiment in a line: Whole body DEXA body composition in ovariectomized rats (Example 3). Format: in vivo, rat. The text has this: FIG. 1 is a flow-chart illustrating the experimental design of the investigations described herein. Female Sprague Dawley rats (Taconic, German Town, N.Y.) were placed on a purified diet of 0.5% calcium and 0.4% phosphorus (AIN-76A Rodent Diet, prepared by Research Diet, Inc., New Brunswick, N.J.). At 4 months of age, a first subset (20) of the animals was sham-operated while a second subset (90) was ovariectomized. The time of ovariectomy is designated as week 0. Eight weeks after this surgery, the ovariectomized animals were divided into experimental groups receiving the following dosing regimen: 2MD, at doses of 0.5, 1.0, 2.5, 5.0 and 10 ng/kg/day; calcitriol (the active form of vitamin D), at doses of 50 ng/kg/day and 200 ng/kg/day; and human parathyroid hormone hPTH, at doses of 20 μg/kg/day. The 2MD and the calcitriol were administered orally in 100 μl of vegetable oil delivered to the back of the tongue by a throat tube, while the hPTH was administered sub-cutaneously.
Serum calcium was measured by tail bleeding at week 14 ([…]), week 21 and week 24. At week 24, the animals were sacrificed and the following endpoint measurements were taken: whole body DEXA; bone markers: osteocalcin and deoxypyridinoline (DPD); peripheral quantitative computed tomography (pQCT) of the distal femoral metaphysis (DFM) and femoral shaft (FS); micro-computerized tomography (micro-CT) of the DFM; serum parathyroid hormone (PTH); histomorphometry of the proximal tibial metaphysis (PTM), lumbar vertebra 3 (LV3) and trabecular separation (TS); and bone strength of the DFM, FS and lumbar vertebra 5 (LV5).
At week 0, the animals underwent surgical treatment as explained above. The animals were allowed to recuperate for 8 weeks before the dosing regimen began (0 wk). At 24 weeks post-surgery the animals were sacrificed and endpoint measurements were taken as explained above.

The mark [3] stands for this setting: 10 ng/kg/day oral, DEXA, FIG. 3.
[4] abbreviates: 10 ng/kg/day oral, DEXA, FIG. 4.
[5] abbreviates: doses of at least 2.5 ng/kg/day, DEXA, FIG. 4.
Where [6] appears, read: 200 ng/kg/day oral, DEXA, FIG. 4.

As for `C[C@H](CCCC(C)(C)O)[C@H]1CC[C@H]2/C(=C/C=C3C[C@@H](O)C[C@H](O)C3)CCC[C@]12C` [1α,25-dihydroxy-19-nor-vitamin D3, reference compound], the calcium mobilizing activity entry in assay [1] (biological testing of 19-nor-analogs) is “very low”. Also, the “potency in inducing cellular differentiation” value in the assay on human leukemia cells is given as “high potency”.

`C=C1[C@H](O)CC(=C/C=C2\CCC[C@]3(C)[C@@H]([C@@H](C)CCCC(C)(C)O)CC[C@@H]23)C[C@H]1O` [2MD, 2-methylene-19-nor-(20S)-1α,25 dihydroxyvitamin D3]: the “activity relative to calcitriol in inducing genes in the osteoblast cell line” value in the assay on osteoblast cell line was “at least 100 fold”. The “intestinal calcium transport activity” value in assay [2] was “low”. The “percent body fat compared to ovariectomized/vehicle controls” value with ovariectomized rats (0.5 ng/kg/day oral, DEXA, FIG. 3) was “little to no effect; also recorded: noticeable trend for a reduced increase”. The “percent body fat compared to ovariectomized/vehicle controls” value with ovariectomized rats (1 ng/kg/day oral, DEXA, FIG. 3) is listed as “little to no effect”. Also, the “percent body fat compared to ovariectomized controls” value in the assay on ovariectomized rats (5 ng/kg/day oral, DEXA, FIG. 3) was “significant decrease”. In the assay with ovariectomized rats (5 ng/kg/day oral, DEXA, FIG. 4), the “body fat component compared to ovariectomized-vehicle controls” value is listed as “significantly less body fat”, the “bone mineral content (BMC) component compared to sham-operated controls” value is recorded as “an increase”, the “lean component compared to sham-operated controls” value was “an increase” and the “total body weight compared to sham/vehicle controls” value is reported as “significantly increased”. Besides, the “reduction in body fat compared with calcitriol at 200 ng/kg/day” value in the assay with ovariectomized rats (5 ng/kg/day oral, FIG. 3) is reported as “as great an effect”. For the same molecule, in the assay on ovariectomized rats (setting [3]), the “percent body fat compared to ovariectomized controls” value is recorded as “significant decrease” and the “percent body fat compared to sham-operated controls” value is recorded as “noticeably less percent body fat”. In addition, in the assay on ovariectomized rats (setting [4]), the “body fat component compared to ovariectomized controls” value is listed as “significantly lower”, the “body fat component compared to sham-operated controls” value is recorded as “less body fat”, the “body weight compared to ovariectomized controls” value is “significantly reduced” and the “lean body weight plus bone mineral content relative to sham operated animals” value is “increased”. In the assay on ovariectomized rats (setting [4]), the “lean body weight relative to sham operated animals” value is recorded as “increased” and the “total body weight compared to sham-control” value is listed as “virtually the same”. The “decrease in the fat component compared with the group receiving 200 ng/kg/day calcitriol” value in the assay with ovariectomized rats (10 ng/kg/day oral, FIG. 3) is “greater decrease”. For the same molecule, the “increase in lean body component and bone mineral component compared with calcitriol at 50 ng/kg/day” value in the assay on ovariectomized rats (DEXA, FIG. 4) is on record as “more positive effect”. This molecule showed a body fat content in the assay on ovariectomized rats (OVX rats, 2MD 10 ng/kg/day oral, DEXA at week 24 (sham-operated group 25%)) of 20%. Further, in the assay on ovariectomized rats (setting [5]), the “bone mineral content (BMC) relative to sham-operated or ovariectomized controls” value is given as “noticeable increase” and the “lean body weight relative to sham-operated or ovariectomized controls” value was “noticeable increase”. Moreover, in the assay with ovariectomized rats (starting at the 1 ng/kg/day dose, DEXA, FIG. 4), the “fat component relative to OVX-controls” value is listed as “trend for a decrease”. In assay [1] (studies described in Shevde et al.), the “bone calcium mobilization activity” value was “high”.

Turning to `C=C1/C(=C\C=C2/CCC[C@]3(C)[C@@H]([C@H](C)CCCC(C)(C)O)CC[C@@H]23)C[C@@H](O)C[C@@H]1O` [calcitriol, 1α,25-dihydroxyvitamin D3, reference compound], the “percent body fat compared to ovariectomized controls” value in the assay with ovariectomized rats (50 ng/kg/day oral, DEXA, FIG. 3) is recorded as “at most only a minor difference”. The “percent body fat compared to ovariectomized controls” value in the assay with ovariectomized rats (200 ng/kg/day oral, DEXA, FIG. 3) is given as “significant decrease”. Besides, in the assay on ovariectomized rats (setting [6]), the “body fat compared to ovariectomized controls” value is on record as “less body fat” and the “body fat compared to sham-operated controls” value is given as “noticeable increase in body fat”. Moreover, in the assay on ovariectomized rats (calcitriol group, DEXA, FIG. 4), the “body weight compared to ovariectomized controls” value was “only a tendency for reduction” and the “overall body weight compared to sham-controls” value is “increase in overall body weight”. The “reduction of total body weight” value in the assay on ovariectomized rats (even at much higher doses than 2MD) is recorded as “did not act to significantly reduce”.

B1: hPTH: human parathyroid hormone hPTH, administered sub-cutaneously at 20 μg/kg/day (peptide, UniProt P01270 32-115, looked up)
Parathyroid hormone: SVSEIQLMHNLGKHLNSMERVEWLRKKLQDVHNFVALGAPLAPRDAGSQRPRKKEDNVLVESHEKSLGEADKADVNVLTKAKSQ
modifications: Parathyroid hormone
notes: human parathyroid hormone hPTH, administered sub-cutaneously at 20 μg/kg/day
For B1, the “percent body fat compared to ovariectomized controls” value in the assay with ovariectomized rats (20 μg/kg/day sub-cutaneously, DEXA, FIG. 3) is reported as “at most only a minor difference”.

Values taken from patent publication US20050143358A1, “Methods for reducing body fat using vitamin D compounds” (Deltanoid Pharmaceuticals, Inc., priority 2003, published 2005).
